Reference: patent US20230312550A1, “N-(2-(4-CYANOTHIAZOLIDIN-3-YL)-2-OXOETHYL)-QUINOLINE-4-CARBOXAMIDES” (AstraZeneca AB, priority 2020, published 2023)
In brackets after ≈: the same amount, converted by molar mass.

Key:
[1] = Metabolic stability in rat hepatocytes (rHep); details: n = 1 or geometric mean of n = 2-3
[2] = target: Prolyl endopeptidase, Prolyl Oligopeptidase (hPREP) (Homo sapiens (Human), UniProt P48147); experiment: hPrep inhibition assay; type: biochemical; details: hPREP 0.6 nM, Z-Gly-Pro-amino-methylcoumarin 50 μM; read-out: PREP IC50
Chain of Prolyl endopeptidase, Prolyl Oligopeptidase (hPREP) (P48147 whole entry): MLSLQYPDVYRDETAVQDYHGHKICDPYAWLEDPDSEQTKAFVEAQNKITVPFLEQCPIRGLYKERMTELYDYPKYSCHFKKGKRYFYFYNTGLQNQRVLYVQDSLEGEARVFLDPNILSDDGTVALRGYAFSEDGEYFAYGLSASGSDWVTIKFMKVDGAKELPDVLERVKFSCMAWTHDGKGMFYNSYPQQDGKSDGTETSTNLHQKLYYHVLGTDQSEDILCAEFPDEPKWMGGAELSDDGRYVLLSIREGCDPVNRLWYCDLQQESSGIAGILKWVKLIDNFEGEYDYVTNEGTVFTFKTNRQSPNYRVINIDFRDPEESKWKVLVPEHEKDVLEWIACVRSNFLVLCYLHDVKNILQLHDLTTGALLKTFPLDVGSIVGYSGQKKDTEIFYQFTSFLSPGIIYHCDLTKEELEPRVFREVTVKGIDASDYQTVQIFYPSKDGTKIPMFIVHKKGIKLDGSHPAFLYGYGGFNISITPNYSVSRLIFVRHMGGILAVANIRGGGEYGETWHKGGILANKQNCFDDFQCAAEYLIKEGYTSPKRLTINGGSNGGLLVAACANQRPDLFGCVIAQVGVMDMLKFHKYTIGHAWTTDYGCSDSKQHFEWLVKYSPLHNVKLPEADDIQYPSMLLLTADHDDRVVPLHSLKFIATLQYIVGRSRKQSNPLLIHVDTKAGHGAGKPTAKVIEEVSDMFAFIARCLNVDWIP
Method: Compounds were tested in a biochemical inhibition assay using Prolyl endopeptidase, Prolyl Oligopeptidase (hPREP) enzyme at 0.6 nM FAC (R&D Systems, 4308-SE) and the substrate Z-Gly-Pro-amino-methylcoumarin (Bachem, I-1145) at 50 μM FAC. 384 Low volume black plates (Greiner #784076) were used. […] Plates were incubated for 15 min at rt in dark. 4 μL, 100 μM substrate solution (25 mM Tris HCl, 250 mM NaCl, 0.01% Triton X-100, 5 mM Glutathione, pH 7.5) was added to each well. Plates were centrifuged at 1000 rpm and incubated for 20 min at rt in dark. The plates were read on a PHERAstar® reader with excitation 340 nm and emission 460 nm. Data were analyzed in Genedata Screener®. IC50 values were determined by plotting % inhibition versus log compound concentration and using a one site dose response model.

[3] = Metabolic stability in human liver microsomes (HLM); details: for microsomal CLint: human
Method: Metabolic stability in HLM was measured as described in J Comput Aided Mol Des 2015, 29, 795.

hFAP (M39-A757) = hFAP (M39-A757) (Homo sapiens (Human), UniProt Q12884); experiment: hFAP binding assay (surface plasmon resonance); details: SPR, 20° C.; for hFAP Binding assay k(off) / hFAP Binding assay k(on): single cycle kinetics; for Kd: n = 1 or geometric mean n = 2-4
Chain of hFAP (M39-A757) (Q12884 39-757): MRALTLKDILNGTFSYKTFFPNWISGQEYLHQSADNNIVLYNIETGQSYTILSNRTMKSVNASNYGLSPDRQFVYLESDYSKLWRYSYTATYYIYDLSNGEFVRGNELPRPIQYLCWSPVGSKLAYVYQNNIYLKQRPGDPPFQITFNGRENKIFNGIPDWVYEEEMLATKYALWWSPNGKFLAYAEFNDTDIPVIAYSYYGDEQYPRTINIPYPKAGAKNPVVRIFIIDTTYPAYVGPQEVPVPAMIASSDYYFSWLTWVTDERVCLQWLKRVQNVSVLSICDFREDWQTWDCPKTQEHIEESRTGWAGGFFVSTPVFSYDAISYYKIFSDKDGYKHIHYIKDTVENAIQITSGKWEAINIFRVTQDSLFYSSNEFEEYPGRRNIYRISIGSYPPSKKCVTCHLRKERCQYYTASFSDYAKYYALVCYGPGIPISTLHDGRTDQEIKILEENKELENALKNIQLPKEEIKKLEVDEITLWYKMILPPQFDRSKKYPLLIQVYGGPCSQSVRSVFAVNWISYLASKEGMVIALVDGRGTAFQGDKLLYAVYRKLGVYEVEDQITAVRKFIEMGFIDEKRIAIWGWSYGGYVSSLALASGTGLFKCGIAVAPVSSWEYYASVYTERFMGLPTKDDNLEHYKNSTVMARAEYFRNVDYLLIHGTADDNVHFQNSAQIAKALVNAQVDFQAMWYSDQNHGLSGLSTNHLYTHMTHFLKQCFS

[4] = target: human Fibroblast activation protein alpha (hFAP) (Homo sapiens (Human), UniProt Q12884); experiment: hFAP inhibition assay (tight binders); type: biochemical; details: Ala-Pro-AMC 20 μM, n = 1 or geometric mean n = 2-6; note: hFAP 2.4 pM
Chain of human Fibroblast activation protein alpha (hFAP) (Q12884 38-760): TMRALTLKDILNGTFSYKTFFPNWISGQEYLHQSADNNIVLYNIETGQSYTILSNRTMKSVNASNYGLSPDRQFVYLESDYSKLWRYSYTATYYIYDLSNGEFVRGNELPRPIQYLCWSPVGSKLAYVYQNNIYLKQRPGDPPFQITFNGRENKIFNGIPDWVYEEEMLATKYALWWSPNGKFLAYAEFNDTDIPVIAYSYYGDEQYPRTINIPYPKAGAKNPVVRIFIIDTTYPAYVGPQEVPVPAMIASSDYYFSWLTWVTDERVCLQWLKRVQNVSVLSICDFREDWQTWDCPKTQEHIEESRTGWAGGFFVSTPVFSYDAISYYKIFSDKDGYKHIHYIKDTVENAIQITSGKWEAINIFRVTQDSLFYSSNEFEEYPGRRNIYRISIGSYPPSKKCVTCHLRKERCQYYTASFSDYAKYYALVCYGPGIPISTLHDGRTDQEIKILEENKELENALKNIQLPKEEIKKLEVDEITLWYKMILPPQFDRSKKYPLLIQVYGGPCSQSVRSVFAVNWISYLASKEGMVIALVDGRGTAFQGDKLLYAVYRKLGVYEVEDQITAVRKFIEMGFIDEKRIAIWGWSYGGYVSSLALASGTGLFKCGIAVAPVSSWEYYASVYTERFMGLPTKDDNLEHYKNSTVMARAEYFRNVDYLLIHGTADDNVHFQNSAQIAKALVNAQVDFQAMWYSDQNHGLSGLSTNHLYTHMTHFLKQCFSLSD
Method: The plates were read on a PHERAstar® reader with excitation 340 nm and emission 460 nm. Data were analyzed in Genedata Screener®. IC50 values were determined by plotting % inhibition versus log compound concentration and using a one site dose response model.

[5] = kinetic from dmso stock, Solubility, kinetic solubility, n = 1 or average of n = 2-3
[6] = HLM CLint, n = 1 or average of n = 2-3

Method for Kinetic solubility: Kinetic solubility was measured as described in Comput Aided Mol Des 2015, 29, 795.

rHep CLint [1] [μL/min/1E6]	solubility (Kinetic solubility; [5]) [µM]	IC50 [2] [nM]	microsomal CLint [3, 6] [µL/min/mg]	hFAP Binding assay k(off) (hFAP (M39-A757)) [s⁻¹]	hFAP Binding assay k(on) (hFAP (M39-A757)) [M⁻¹ s⁻¹]	Kd (hFAP (M39-A757)) [nM]	IC50 [4] [nM]	solubility (Kinetic solubility; kinetic solubility, n = 1 or average of n = 2-3) [µM]	HLM CLint ([3]; n = 1 or average of n = 2-3) [µL/min/mg]	Structure (SMILES)	solubility (Kinetic solubility; kinetic from dmso stock) [µM]	microsomal CLint [3] [µL/min/mg]
16	140 (≈ 66.9 µg/mL)	360	97	0.00014	1800000	0.033	0.12	–	–	CC1(CC(F)(F)F)CN(c2ccc3nccc(C(=O)NCC(=O)N4CSC[C@H]4C#N)c3c2)C1 [Example 131, (R)—N-(2-(4-Cyanothiazolidin-3-yl)-2-oxoethyl)-6-(3-methyl-3-(2,2,2-trifluoroethyl)azetidin-1-yl)quinoline-4-carboxamide]	–	–
47	550	280	61	0.000092	2100000	0.039	0.073	–	–	C[C@H]1N(c2ccc3nccc(C(=O)NCC(=O)N4CSC[C@H]4C#N)c3c2)CC1(F)F (mixture of isomers) [Example 159, N-(2-((R)-4-Cyanothiazolidin-3-yl)-2-oxoethyl)-6-((RS)-3,3-difluoro-2-methylazetidin-1-yl)quinoline-4-carboxamide]	–	–
9.1	52 (≈ 24.3 µg/mL)	1000	36	0.000019	3200000	0.0061	0.045	–	–	CC(C)OC1CCN(c2ccc3nccc(C(=O)NCC(=O)N4CSC[C@H]4C#N)c3c2)CC1 [Example 43, (R)—N-(2-(4-Cyanothiazolidin-3-yl)-2-oxoethyl)-6-(4-isopropoxypiperidin-1-yl)quinoline-4-carboxamide]	–	–
44	–	660	–	–	–	0.044	0.2	4.5 (≈ 1.91 µg/mL)	94	C[C@@H]1CN(c2ccc3nccc(C(=O)NCC(=O)N4CSC[C@H]4C#N)c3c2)C[C@H]1C (single isomer, unassigned) [Example 226, N-(2-((R)-4-Cyanothiazolidin-3-yl)-2-oxoethyl)-6-((3R*,4R*)-3,4-dimethylpyrrolidin-1-yl)quinoline-4-carboxamide]	–	–
5.3	400 (≈ 187 µg/mL)	550	94	0.000033	1500000	0.022	0.038	–	–	CCC1(OC)CCN(c2ccc3nccc(C(=O)NCC(=O)N4CSC[C@H]4C#N)c3c2)CC1 [Example 191, (R)—N-(2-(4-Cyanothiazolidin-3-yl)-2-oxoethyl)-6-(4-ethyl-4-methoxy-piperidin-1-yl)quinoline-4-carboxamide]	–	–
15	490 (≈ 232 µg/mL)	230	98	0.0012	7900000	0.15	0.16	–	–	Cc1cc(C(F)(F)F)nn1-c1ccc2nccc(C(=O)NCC(=O)N3CSC[C@H]3C#N)c2c1 [Example 116, (R)—N-(2-(4-Cyanothiazolidin-3-yl)-2-oxoethyl)-6-(5-methyl-3-(trifluoromethyl)-1H-pyrazol-1-yl)quinoline-4-carboxamide]	–	–
4.7	8.9 (≈ 4.13 µg/mL)	560	17	0.00029	3100000	0.1	0.1	–	–	N#C[C@@H]1CSCN1C(=O)CNC(=O)c1ccnc2ccc(N3CC(CC(F)(F)F)C3)cc12 [Example 158, (R)—N-(2-(4-Cyanothiazolidin-3-yl)-2-oxoethyl)-6-(3-(2,2,2-trifluoroethyl)-azetidin-1-yl)quinoline-4-carboxamide]	–	–
7	18 (≈ 8.02 µg/mL)	460	14	0.00051	9100000	0.049	0.081	–	–	N#C[C@@H]1CSCN1C(=O)CNC(=O)c1ccnc2ccc(N3CC(CC(F)F)C3)cc12 [Example 144, (R)—N-(2-(4-Cyanothiazolidin-3-yl)-2-oxoethyl)-6-(3-(2,2-difluoroethyl)-azetidin-1-yl)quinoline-4-carboxamide]	–	–
47	110 (≈ 49.1 µg/mL)	470	140	0.00016	3200000	0.052	0.048	–	–	N#C[C@@H]1CSCN1C(=O)CNC(=O)c1ccnc2cc(Cl)c(N3CCOCC3)cc12 [Example 179, (R)-7-Chloro-N-(2-(4-cyanothiazolidin-3-yl)-2-oxoethyl)-6-morpholino-quinoline-4-carboxamide]	–	–
26	940 (≈ 451 µg/mL)	710	–	0.00011	1200000	0.12	0.074	–	64	N#C[C@@H]1CSCN1C(=O)CNC(=O)c1ccnc2ccc(N3CCOC[C@@H]3C(F)(F)F)cc12 (single isomer, unassigned) [Example 84, N-(2-((R)-4-Cyanothiazolidin-3-yl)-2-oxoethyl)-6-((R*)-3-(trifluoromethyl)-morpholino)quinoline-4-carboxamide]	–	–
4.8	21 (≈ 9.4 µg/mL)	300	< 3	0.000050	2000000	0.036	0.061	–	–	N#C[C@@H]1CSCN1C(=O)CNC(=O)c1ccnc2ccc(N3CC(OC(F)F)C3)cc12 [Example 136, (R)—N-(2-(4-Cyanothiazolidin-3-yl)-2-oxoethyl)-6-(3-(difluoromethoxy)-azetidin-1-yl)quinoline-4-carboxamide]	–	–
27	1 (≈ 0.477 µg/mL)	76	68	0.00031	610000	0.39	0.16	–	–	N#C[C@@H]1CSCN1C(=O)CNC(=O)c1ccnc2ccc(-n3ccc4c(F)cc(F)cc43)cc12 [Example 119, (R)—N-(2-(4-Cyanothiazolidin-3-yl)-2-oxoethyl)-6-(4,6-difluoro-1H-indol-1-yl)quinoline-4-carboxamide]	–	–
<1	210 (≈ 86.4 µg/mL)	490	< 3	0.00022	26000000	0.035	0.077	–	–	COC1CN(c2ccc3nccc(C(=O)NCC(=O)N4CSC[C@H]4C#N)c3c2)C1 [Example 66, (R)—N-(2-(4-Cyanothiazolidin-3-yl)-2-oxoethyl)-6-(3-methoxyazetidin-1-yl)quinoline-4-carboxamide]	–	–
8.8	< 380	370	40	0.000073	1200000	0.066	0.1	–	–	CC1(CC(F)F)CN(c2ccc3nccc(C(=O)NCC(=O)N4CSC[C@H]4C#N)c3c2)C1 [Example 133, (R)—N-(2-(4-Cyanothiazolidin-3-yl)-2-oxoethyl)-6-(3-(2,2-difluoroethyl)-3-methylazetidin-1-yl)quinoline-4-carboxamide]	–	–

Structure (SMILES)	rHep CLint [1] [μL/min/1E6]	solubility (Kinetic solubility; [5]) [µM]	IC50 [2] [nM]	microsomal CLint [3, 6] [µL/min/mg]	hFAP Binding assay k(off) (hFAP (M39-A757)) [s⁻¹]	hFAP Binding assay k(on) (hFAP (M39-A757)) [M⁻¹ s⁻¹]	Kd (hFAP (M39-A757)) [nM]	IC50 [4] [nM]	solubility (Kinetic solubility; kinetic solubility, n = 1 or average of n = 2-3) [µM]	HLM CLint ([3]; n = 1 or average of n = 2-3) [µL/min/mg]	solubility (Kinetic solubility; kinetic from dmso stock) [µM]	microsomal CLint [3] [µL/min/mg]
N#C[C@@H]1CSCN1C(=O)CNC(=O)c1ccnc2ccc(N3CC4(CCCC4(F)F)C3)cc12 [Example 141, (R)—N-(2-(4-Cyanothiazolidin-3-yl)-2-oxoethyl)-6-(5,5-difluoro-2-azaspiro[3.4]octan-2-yl)quinoline-4-carboxamide]	11	–	460	–	0.000078	1400000	0.062	0.059	–	–	140 (≈ 66 µg/mL)	54
N#C[C@@H]1CSCN1C(=O)CNC(=O)c1ccnc2ccc(N3CC4(CCS4)C3)cc12 [Example 222, (R)—N-(2-(4-Cyanothiazolidin-3-yl)-2-oxoethyl)-6-(1-thia-6-azaspiro[3.3]heptan-6-yl)quinoline-4-carboxamide]	4.2	–	490	–	–	–	0.022	0.087	–	–	120 (≈ 52.7 µg/mL)	40
